Paper PMC4949440 (Scientific Reports, 2016)
Like-named read-outs stand apart in the source and are kept apart here.

Experiments:
[1] = system: MCF-7 cells; assay: cells; type: cell-based; conditions: read-out: IC50 MCF-7
[2] = system: SGC7901 cells; assay: cells; type: cell-based; conditions: read-out: IC50 SGC7901
[3] = system: HL-60 cells; assay: cells; type: cell-based, human
[4] = system: GES-1 cells; assay: cells; type: cell-based; conditions: read-out: IC50 GES-1
[5] = system: Caspase-3 in HL-60 cells; assay: Caspase-3 activity (colorimetric, cell extracts); type: cell-based, human
Method: HL-60 cells were treated with 3 μM 2a or 2 μM 2b for 12 h in a 6-well plate. Each sample was collected and washed twice with PBS. Then the cells were incubated with moderate lysis buffer from the kit on ice. The cell extract was handled on the basis of manufacturer’s instructions (beyotime, Shanghai, China). After 3 h, the absorbance at 405 nm was measured using a microplate reader.
(§1) In protective trial, the cells were pre-incubated with the protective agents for 4 h and other operations were in accordance with the above.

[6] = system: HL-60 cells; assay: Total glutathione and GSH/GSSG level; type: cell-based, human; conditions: 2 μM 2a or 1.5 μM 2b; for ratio of GSH/GSSG: with or without 0.075 mM LA
Method: The cells were cultured in a 6-well plate and treated with 2 μM 2a or 1.5 μM 2b. After 24 h, the cells were collected and washed twice with PBS. The protein content was quantified by the use of Bradford procedure. Then each sample was treated according to the manufacturer’s instructions (beyotime, Shanghai, China). The absorbance was measured every 5 minutes at 405 nm with microplate reader.
as §1

[7] = system: HL-60 cells; assay: Hoechst 33342 staining, morphology; type: cell-based, human; conditions: 2a (1 μM and 2 μM) or 2b (0.75 μM and 1.5 μM), 24 h
Method: HL-60 cells treated with 2a (1 μM and 2 μM) or 2b (0.75 μM and 1.5 μM) were plated in 12-well plates, and the medium was removed after 24 h, followed by the addition of 5 μg.mL^−1 Hoechst 33342. After being incubated for 30 min in dark at 37 °C, the samples were visualized and photographed using a C1-si Laser Scanning Confocal Microscope (Nikon, Japan)[27].

[8] = system: HL-60 cells; assay: Released cytochrome c level (ELISA); type: cell-based, human; conditions: 3 μM 2a or 2 μM 2b, 24 h
Method: HL-60 cells with 3 μM 2a or 2 μM 2b were incubated in a 12-well plate for 24 h. The cells were sacrificed and dealt with ELISA Kit (Meilian BiotechCo., Ltd, Shanghai, China) according to the manufacturer’s instructions. The absorbance was measured at 450 nm with microplate reader.
as §1

[9] = system: HL-60 cells; assay: Mitochondrial membrane potential (JC-1 or Rh123, flow cytometry); type: cell-based, human
Method: HL-60 cells treated with 2a (1.5 μM and 3 μM) or 2b (1 μM and 2 μM) were plated in 12-well plates. After 24 h, cells were collected and washed once with PBS. Then, the cells were handled with JC-1 according to the manufacturer’s instructions (Multi Sciences BiotechCo., Ltd, Hangzhou, China) or Rh123. Data were obtained and analyzed using a C6 flow cytometer (BD Biosciences, USA).
as §1

[10] = system: normal leukocyte; assay: Effect on normal leukocyte (MTT viability and Annexin V-FITC/PI apoptosis); type: cell-based, human; conditions: 3.5 μM 2a, 2.5 μM 2b or 15 μM As2O3 for 6 h, 12 h or 24 h
Method: Normal human fresh peripheral blood with EDTA anticoagulant was dealt with Red Blood Cell Lysis Buffer according to manufacturer’s instructions (Beyotime, Shanghai, China) to obtain the normal leukocyte. […] Then, the apoptosis rate using Annexin V-FITC/PI staining and cell viability using MTT method were tested respectively. There are 8 independent normal human fresh peripheral blood samples in all to be tested. This study was carried out in accordance with relevant guidelines and regulations of Wuhan University and the experiment protocol was approved by Zhongnan Hospital of Wuhan University. Additionally, the informed consent was obtained from all subjects.

[11] = system: HL-60 cells; type: cell-based, human; conditions: for apoptosis rate (FITC+/PI− and FITC+/PI+): control 2.9%
[12] = system: HEK293 cells; assay: cells; type: cell-based
[13] = system: NIH3T3 cells; assay: cells; type: cell-based
[14] = system: HL-60 cells; assay: Intracellular ROS level (DCFH-DA); type: cell-based, human; conditions: 2 μM 2a or 1.5 μM 2b, 24 h
Method: HL-60 cells treated with 2 μM 2a or 1.5 μM 2b were plated in 12-well plates. After 24 h, each sample of cells was collected and washed once with PBS. The cells were incubated with 300 μL FBS-free medium containing DCFH-DA (1 μM) for 30 min in dark at 37 °C. Data were obtained and analyzed using a C6 flow cytometer (BD Biosciences, USA)[27].
In laser scanning confocal experiment, the medium was removed after 24 h incubation. 1 mL FBS-free medium with DCFH-DA (10 μM) was added to each sample. Then continue the incubation for 30 min in dark at 37 °C. The samples were visualized and photographed using a C1-si Laser Scanning Confocal Microscope (Nikon, Japan).
as §1

[15] = Homo sapiens, HL-60, 24 h, read-out: IC50 HL-60
[16] = 3 μM 2a or 2 μM 2b alone, 24 h, 12 h (method)
[17] = 3 μM 2a or 2 μM 2b with 0.075 mM LA
[18] = 3 μM 2a or 2 μM 2b after pre-adding 0.075 mM LA
[19] = 3 μM 2a or 2 μM 2b, 24 h (Fig. 5b), control 30.8%
[20] = 3 μM 2a or 2 μM 2b alone, 24 h (Fig. 2a, Fig. 6c)
[21] = 3 μM 2a or 2 μM 2b alone, 24 h, LA experiment (Fig. 6d)
[22] = 3 μM 2a or 2 μM 2b with 0.075 mM LA pre-incubating, 24 h
[23] = 3 μM 2a or 2 μM 2b with 2 mM NAC, 24 h
[24] = 3 μM 2a or 2 μM 2b, 24 h (Fig. 2a)
[25] = Homo sapiens, HEK293, read-out: IC50 HEK293
[26] = Mus musculus, NIH3T3, read-out: IC50 NIH3T3

SMILES: Oc1ccccc1C=Nc1ccccc1 [Compound 1a, 2-((phenylimino)methyl) phenol, reference compound]
- IC50 ([1]; Homo sapiens, MCF7, 24 h): > 100 µM
- IC50 ([2]; Homo sapiens, SGC-7901, 24 h): > 100 µM
- IC50 [3, 15]: > 100 µM
- IC50 ([4]; Homo sapiens, GES1, 24 h): > 100 µM

SMILES: O=[As]c1ccc(N=Cc2ccccc2O)cc1 (centres unmarked) [Compound 2a, 2-(((4-(oxoarsanyl)phenyl)imino)methyl)phenol]
- IC50 ([1]; Homo sapiens, MCF7, 24 h): 2.53 ± 0.41 µM
- IC50 ([2]; Homo sapiens, SGC-7901, 24 h): 4.03 ± 0.89 µM
- activity of Caspase-3 [5, 16]: enhanced
- activity of Caspase-3 [5, 17]: could be deterred by 0.075 mM LA
- content of intracellular total GSH ([6]; 24 h): decreased significantly
- content of intracellular total GSH ([6]; pretreatment with 0.075 mM LA): could recover the content
- ratio of GSH/GSSG [6]: showed the similar variation trend
- concentration that could kill the majority of HL-60 cells [3]: less than 1 μM
- IC50 [3, 15]: 0.77 ± 0.1 µM
- IC50 ([4]; Homo sapiens, GES1, 24 h): 5.96 ± 1.23 µM
- morphology changes (Hoechst 33342 fluorescence) [7]: cell nuclear shrinkage and DNA incision
- relative content of cytochrome c versus control [8]: approximately six times
- intensity of Rh123 (mitochondrial membrane potential) ([9]; 3 μM 2a or 2 μM 2b): drop obviously
- intensity of Rh123 (mitochondrial membrane potential) [9, 18]: recovered to some extent
- proportion of mitochondrial membrane potential collapse (P2, JC-1) [9, 19]: 68.3%
- influence on normal leukocyte (cell viability, apoptosis) versus control [10]: no more influence on normal leukocyte than control
- apoptosis rate (FITC+/PI− and FITC+/PI+) ([11]; 1.5 μM 2a or 1 μM 2b, 24 h): 9.3%
- Q1-LL live (normal) cells [11, 20]: 44.3%
- apoptosis rate [11, 21]: 55.7%
- apoptosis rate [11, 22]: 11.4%
- Q1-LL live (normal) cells [11, 23]: 86.6%
- apoptosis rate (FITC+/PI− and FITC+/PI+) [11, 24]: 55.5%
- IC50 [12, 25]: 4.36 ± 0.62 µM
- IC50 [13, 26]: 7.43 ± 0.37 µM
- relative fluorescence intensity of DCF (ROS) versus control [14]: doubled approximately
- ROS level with antioxidant ([14]; 0.075 mM LA pre-incubated 4 h): scavenging ROS completely
- ROS level with antioxidant ([14]; 1 mM DTT pre-incubated 4 h): scavenge additional ROS completely
- ROS level with antioxidant ([14]; 1 mM VC pre-incubated 4 h): decrease the level of ROS to that of control
- ROS level with antioxidant ([14]; 2 mM NAC pre-incubated 4 h): scavenge additional ROS completely
- ROS level with antioxidant ([14]; pretreated with GSH): began to decrease by a concentration-dependent way

SMILES: COc1cc(C=Nc2ccc([As]=O)cc2)ccc1O (centres unmarked) [Compound 2b, 2-methoxy-4-(((4-(oxoarsanyl)phenyl)imino)methyl)phenol]
- IC50 ([1]; Homo sapiens, MCF7, 24 h): 2.81 ± 1.34 µM
- IC50 ([2]; Homo sapiens, SGC-7901, 24 h): 2.12 ± 0.48 µM
- activity of Caspase-3 [5, 16]: enhanced
- activity of Caspase-3 [5, 17]: could be deterred by 0.075 mM LA
- content of intracellular total GSH ([6]; 24 h): decreased significantly
- content of intracellular total GSH ([6]; pretreatment with 0.075 mM LA): could recover the content
- ratio of GSH/GSSG [6]: showed the similar variation trend
- concentration that could kill the majority of HL-60 cells [3]: less than 1 μM
- IC50 [3, 15]: 0.51 ± 0.1 µM
- IC50 ([4]; Homo sapiens, GES1, 24 h): 1.57 ± 0.26 µM
- morphology changes (Hoechst 33342 fluorescence) [7]: cell nuclear shrinkage and DNA incision
- relative content of cytochrome c versus control [8]: five times
- intensity of Rh123 (mitochondrial membrane potential) ([9]; 3 μM 2a or 2 μM 2b): drop obviously
- intensity of Rh123 (mitochondrial membrane potential) [9, 18]: recovered to some extent
- proportion of mitochondrial membrane potential collapse (P2, JC-1) ([9]; 3 μM 2a or 2 μM 2b with 0.075 mM LA pre-incubation (Fig. 5b)): ~12%
- proportion of mitochondrial membrane potential collapse (P2, JC-1) [9, 19]: 78.5%
- influence on normal leukocyte (cell viability, apoptosis) versus control [10]: no more influence on normal leukocyte than control
- apoptosis rate (FITC+/PI− and FITC+/PI+) ([11]; 1.5 μM 2a or 1 μM 2b, 24 h): 10.7%
- Q1-LL live (normal) cells [11, 20]: 34.4%
- apoptosis rate [11, 21]: 86.1%
- apoptosis rate [11, 22]: 11.7%
- Q1-LL live (normal) cells [11, 23]: 92.1%
- apoptosis rate (FITC+/PI− and FITC+/PI+) [11, 24]: 65.3%
- IC50 [12, 25]: 2.29 ± 0.34 µM
- IC50 [13, 26]: 2.72 ± 0.64 µM
- relative fluorescence intensity of DCF (ROS) versus control [14]: doubled approximately
- ROS level with antioxidant ([14]; 0.075 mM LA pre-incubated 4 h): scavenging ROS completely
- ROS level with antioxidant ([14]; 1 mM DTT pre-incubated 4 h): eliminate the majority of ROS
- ROS level with antioxidant ([14]; 1 mM VC pre-incubated 4 h): eliminate the majority of ROS
- ROS level with antioxidant ([14]; 2 mM NAC pre-incubated 4 h): removed completely
- ROS level with antioxidant ([14]; pretreated with GSH): began to decrease by a concentration-dependent way

SMILES: O=[As]c1ccc(N=Cc2c3ccccc3cc3ccccc23)cc1 (centres unmarked) [Compound 4a, 1-(anthracen-9-yl)-N-(4-(oxoarsanyl)phenyl) methanimine]
- IC50 ([1]; Homo sapiens, MCF7, 24 h): 11.3 ± 3.4 µM
- IC50 ([2]; Homo sapiens, SGC-7901, 24 h): 7.63 ± 3.02 µM
- melting point: 91 to 92 °C
- IC50 [3, 15]: 15.9 ± 0.56 µM
- IC50 ([3]; Homo sapiens, HL-60, read-out: half inhibitory concentration (IC50) for HL-60 cells): > 10 µM
- IC50 ([4]; Homo sapiens, GES1, 24 h): 8.72 ± 3.76 µM

SMILES: O=[As]O [NaAsO2, reference compound]
- IC50 [1]: 31.7 ± 0.67 µM
- IC50 [2]: 59 ± 11.8 µM
- IC50 ([3]; read-out: IC50 HL-60): 10.6 ± 3.06 µM
- IC50 [4]: 42.6 ± 11.6 µM
- IC50 ([12]; read-out: IC50 HEK293): 14.6 ± 0.61 µM
- IC50 ([13]; read-out: IC50 NIH3T3): 10.8 ± 1.66 µM
